Data taken from US11591336B2 (Relay Therapeutics, Inc., priority 2017, dated 2023).
Structures can show the parent of a compound that is named as a salt.

Target: SHP2 (Homo sapiens (Human), UniProt Q06124)
Experiment: SHP2 Allosteric Inhibition Assay (DiFMUP prompt fluorescence)
Type: biochemical
Details: 0.25 nM SHP2 activated with 0.5 μM peptide IRS1_pY1172(dPEG8)pY1222; substrate DiFMUP 100 μM; 25° C.

Sequence of SHP2 (Q06124 whole entry): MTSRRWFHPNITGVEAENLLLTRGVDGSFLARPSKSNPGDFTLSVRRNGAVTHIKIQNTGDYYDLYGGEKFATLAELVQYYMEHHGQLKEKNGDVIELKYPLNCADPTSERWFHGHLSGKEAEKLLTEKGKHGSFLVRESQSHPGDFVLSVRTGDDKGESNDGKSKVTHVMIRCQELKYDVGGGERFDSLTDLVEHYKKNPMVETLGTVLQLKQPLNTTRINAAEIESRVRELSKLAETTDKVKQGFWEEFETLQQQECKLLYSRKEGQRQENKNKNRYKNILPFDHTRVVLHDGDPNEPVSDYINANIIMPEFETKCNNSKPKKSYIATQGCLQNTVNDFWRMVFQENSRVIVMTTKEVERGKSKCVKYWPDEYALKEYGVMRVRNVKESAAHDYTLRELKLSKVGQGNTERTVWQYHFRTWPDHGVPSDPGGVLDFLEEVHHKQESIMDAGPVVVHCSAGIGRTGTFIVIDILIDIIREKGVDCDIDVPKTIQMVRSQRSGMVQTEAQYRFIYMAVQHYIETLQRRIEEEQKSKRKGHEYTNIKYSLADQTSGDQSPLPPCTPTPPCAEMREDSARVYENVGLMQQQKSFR

First: C[C@@H]1C[C@H](O)CCN1c1cnc2c(N3CCCc4ncccc43)n[nH]c2n1 (racemic) [Compound 95, (2R,4R)-1-(3-(3,4-dihydro-1,5-naphthyridin-1(2H)-yl)-1H-pyrazolo[3,4-b]pyrazin-6-yl)-2-methylpiperidin-4-ol]
Second: C[C@@H]1C[C@@H](N)CCN1c1cnc2c(N3CCCc4ncccc43)n[nH]c2n1 (stereo in doubt) [Compound 24, rel-(2R,4S)-1-(3-(3,4-Dihydro-1,5-naphthyridin-1(2H)-yl)-1H-pyrazolo[3,4-b]pyrazin-6-yl)-2-methylpiperidin-4-amine]
The IC50 of the first is higher: no less than 10000 nM for the first, less than 1000 nM for the second. The second is the more potent here.

First: C[C@@H]1C[C@@H](CN)CCN1c1cnc2c(N3CCCc4ncccc43)n[nH]c2n1 (racemic) [Compound 104, ((2R,4S)-1-(3-(3,4-dihydro-1,5-naphthyridin-1(2H)-yl)-1H-pyrazolo[3,4-b]pyrazin-6-yl)-2-methylpiperidin-4-yl)methanamine]
Second: C[C@@H]1C[C@H](CN)CCN1c1cnc2c(N3CCCc4ncccc43)n[nH]c2n1 (racemic) [Compound 109, ((2R,4R)-1-(3-(3,4-dihydro-1,5-naphthyridin-1(2H)-yl)-1H-pyrazolo[3,4-b]pyrazin-6-yl)-2-methylpiperidin-4-yl)methanamine]
The IC50 of the first is lower: less than 1000 nM for the first, 1000 to 10000 nM for the second. The first is the more potent here.

`NC[C@H]1CCN(c2cnc3c(N4CCCc5ncccc54)n[nH]c3n2)[C@H](Cc2ccccc2)C1` (racemic) [Compound 158] and `NC[C@H]1CCN(c2cnc3c(N4CCCc5ncccc54)n[nH]c3n2)[C@@H](Cc2ccccc2)C1` (racemic) [Compound 159] cannot be ordered by IC50: no less than 10000 nM for the first, 1000 to 10000 nM for the second.

First: N[C@@H]1CCC[C@@]12CCN(c1cnc3c(N4CCCc5ncccc54)n[nH]c3n1)C2 (relative stereo) [Compound 206, rel-(5S,6R)-2-(3-(3,4-dihydro-1,5-naphthyridin-1(2H)-yl)-1H-pyrazolo[3,4-b]pyrazin-6-yl)-2-azaspiro[4.4]nonan-6-amine]
Second: C[C@H](N)C1(C)CCN(c2cnc3c(N4CCCc5ncccc54)n[nH]c3n2)CC1 (single isomer, unassigned) [Compound 110]
The IC50 of the first is higher: 1000 to 10000 nM for the first, less than 1000 nM for the second.

`C[C@@H]1CCN(c2n[nH]c3nc(N4CCC5(CC4)CO[C@@H](C)[C@H]5N)cnc23)c2ccc(-c3ncc[nH]3)nc21` (relative stereo) [Compound 448, (3S,4S)-8-{3-[(4R*)-6-(1H-imidazol-2-yl)-4-methyl-1,2,3,4-tetrahydro-1,5-naphthyridin-1-yl]-1H-pyrazolo[3,4-b]pyrazin-6-yl)-3-methyl-2-oxa-8-azaspiro[4.5]decan-4-amine hydrochloride] and `C[C@@H]1OCC2(CCN(c3cnc4c(N5CC[C@H](C)c6nc(-c7ncc[nH]7)ccc65)n[nH]c4n3)CC2)[C@@H]1N` (relative stereo) [Compound 449, (3S,4S)-8-{3-[(4R*)-6-(1H-imidazol-2-yl)-4-methyl-1,2,3,4-tetrahydro-1,5-naphthyridin-1-yl]-1H-pyrazolo[3,4-b]pyrazin-6-yl)-3-methyl-2-oxa-8-azaspiro[4.5]decan-4-amine hydrochloride] cannot be ordered by IC50: less than 1000 nM for the first, less than 1000 nM for the second.

`C[C@@H]1CCN(c2n[nH]c3nc(N4CCC5(CC4)CO[C@@H](C)[C@H]5N)cnc23)c2ccc(-c3noc(=O)[nH]3)nc21` (relative stereo) [Compound 450, 3-[(8R*)-5-{6-[(3S,4S)-4-amino-3-methyl-2-oxa-8-azaspiro[4.5]decan-8-yl]-1H-pyrazolo[3,4-b]pyrazin-3-yl}-8-methyl-5,6,7,8-tetrahydro-1,5-naphthyridin-2-yl]-4,5-dihydro-1,2,4-oxadiazol-5-one] and `C[C@@H]1OCC2(CCN(c3cnc4c(N5CC[C@H](C)c6nc(-c7noc(=O)[nH]7)ccc65)n[nH]c4n3)CC2)[C@@H]1N` (relative stereo) [Compound 451, 3-[(8R*)-5-{6-[(3S,4S)-4-amino-3-methyl-2-oxa-8-azaspiro[4.5]decan-8-yl]-1H-pyrazolo[3,4-b]pyrazin-3-yl}-8-methyl-5,6,7,8-tetrahydro-1,5-naphthyridin-2-yl]-4,5-dihydro-1,2,4-oxadiazol-5-one] cannot be ordered by IC50: less than 1000 nM for the first, less than 1000 nM for the second.

`CCC1CCN(c2n[nH]c3nc(N4CCC(C)(CN)CC4)cnc23)c2ccccc21` (single isomer, unassigned) [Compound 102, hydrochloride] and `CC1CCN(c2n[nH]c3nc(N4CCC(C)(CN)CC4)cnc23)c2cccnc21` (single isomer, unassigned) [Compound 128] cannot be ordered by IC50: less than 1000 nM for the first, less than 1000 nM for the second.

`CCC1CCN(c2n[nH]c3nc(N4CCC(C)(CN)CC4)cnc23)c2ccccc21` (single isomer, unassigned) [Compound 103, hydrochloride] and `C[C@@H]1CCN(c2n[nH]c3nc(N4CCC(C)(CN)CC4)cnc23)c2ccc(C#N)cc21` (single isomer, unassigned) [Compound 115] cannot be ordered by IC50: less than 1000 nM for the first, less than 1000 nM for the second.

`C[C@@H](N)C1(C)CCN(c2cnc3c(N4CCCc5ncccc54)n[nH]c3n2)CC1` (single isomer, unassigned) [Compound 111] and `C[C@H]1C[C@H](N)CCN1c1cnc2c(N3CCCc4ncccc43)n[nH]c2n1` (stereo in doubt) [Compound 25, rel-(2S,4R)-1-(3-(3,4-dihydro-1,5-naphthyridin-1(2H)-yl)-1H-pyrazolo[3,4-b]pyrazin-6-yl)-2-methylpiperidin-4-amine] cannot be ordered by IC50: less than 1000 nM for the first, less than 1000 nM for the second.

`C[C@H]1CCN(c2n[nH]c3nc(N4CCC(C)(CN)CC4)cnc23)c2ccc(C#N)cc21` (single isomer, unassigned) [Compound 116] and `C[C@@H]1CCN(c2n[nH]c3nc(N4CCC(C)(CN)CC4)cnc23)c2ccc(-c3nccs3)nc21` (single isomer, unassigned) [Compound 196, hydrochloride] cannot be ordered by IC50: less than 1000 nM for the first, less than 1000 nM for the second.

`C[C@H]1CCN(c2n[nH]c3nc(N4CCC(C)(CN)CC4)cnc23)c2ccc(-c3nccs3)nc21` (single isomer, unassigned) [Compound 197, hydrochloride] and `C[C@@H]1OCC2(CCN(c3cnc4c(N5CC[C@H](C)c6nc(-c7ncon7)ccc65)n[nH]c4n3)CC2)[C@@H]1N` (single isomer, unassigned) [Compound 370] cannot be ordered by IC50: less than 1000 nM for the first, less than 1000 nM for the second.

`C[C@@H]1CCN(c2n[nH]c3nc(N4CCC5(CC4)CO[C@@H](C)[C@H]5N)cnc23)c2ccc(C#N)c(F)c21` (single isomer, unassigned) [Compound 229] and `C[C@@H]1OCC2(CCN(c3cnc4c(N5CC[C@H](C)c6c5ccc(C#N)c6F)n[nH]c4n3)CC2)[C@@H]1N` (single isomer, unassigned) [Compound 230] cannot be ordered by IC50: less than 1000 nM for the first, less than 1000 nM for the second.

`C[C@@H]1CCN(c2n[nH]c3nc(N4CCC5(CC4)CO[C@@H](C)[C@H]5N)cnc23)c2cc(F)cnc21` (single isomer, unassigned) [Compound 262, hydrochloride] and `C[C@@H]1OCC2(CCN(c3cnc4c(N5CC[C@H](C)c6ncc(F)cc65)n[nH]c4n3)CC2)[C@@H]1N` (single isomer, unassigned) [Compound 263, hydrochloride] cannot be ordered by IC50: less than 1000 nM for the first, less than 1000 nM for the second.

`C[C@@H]1CCN(c2n[nH]c3nc(N4CCC5(CC4)CO[C@@H](C)[C@H]5N)cnc23)c2ccc(-c3ncon3)nc21` (single isomer, unassigned) [Compound 371] gave an IC50 of less than 1000 nM.
